According to patent publication US10124033B2, “Peptides and methods of use” (BAXALTA INCORPORATED, priority 2014, dated 2018):
Like-named read-outs stand apart in the source and are kept apart here. Residues, ends and D or L forms follow the SMILES beside them.

Assays:
Format in all cases: binding
[1] = biological target: T1, Protein S (Homo sapiens, UniProt P07225); assay: competition (IC50) ELISA with biotinylated tracer peptide JBS0684
T1 sequence (P07225 41-676 limits assumed): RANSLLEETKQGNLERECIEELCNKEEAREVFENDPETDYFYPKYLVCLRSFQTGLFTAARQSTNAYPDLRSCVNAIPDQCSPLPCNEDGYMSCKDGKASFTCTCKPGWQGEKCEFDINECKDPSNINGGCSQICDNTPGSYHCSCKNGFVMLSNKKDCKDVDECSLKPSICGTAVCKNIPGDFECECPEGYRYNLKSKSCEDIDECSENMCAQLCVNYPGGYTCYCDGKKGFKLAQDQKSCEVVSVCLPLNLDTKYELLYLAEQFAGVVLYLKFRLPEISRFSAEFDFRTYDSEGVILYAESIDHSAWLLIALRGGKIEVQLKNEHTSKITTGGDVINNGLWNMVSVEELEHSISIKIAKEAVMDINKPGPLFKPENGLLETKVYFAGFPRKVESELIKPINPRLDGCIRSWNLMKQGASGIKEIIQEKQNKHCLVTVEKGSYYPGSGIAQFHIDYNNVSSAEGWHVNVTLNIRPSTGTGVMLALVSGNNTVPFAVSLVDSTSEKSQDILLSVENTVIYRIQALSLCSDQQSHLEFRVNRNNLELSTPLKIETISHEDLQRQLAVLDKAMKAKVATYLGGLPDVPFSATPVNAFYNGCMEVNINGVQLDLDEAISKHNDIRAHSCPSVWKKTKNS
Method: The new peptide candidates were synthesized (purity >60%) and screened for affinity in a competitive binding assay (ELISA IC50) and activity in a thrombin generation assay (CAT). The competition (IC50) ELISA was performed using biotinylated tracer peptide JBS0684 to compete for Protein S-binding with candidate peptides. Peptides that compete with the tracer bind the same region of Protein S as the tracer (and each other). Ninety-six well PolySorp plates (Nunc) were coated with 3 μg/mL Protein S in coating buffer (15 mM Na2CO3, 35 mM NaHCO3, pH 9.6) over night. Plates were washed three times with wash buffer (HNaT: 175 mM NaCl, 25 mM HEPES, 5 mM CaCl2, 0.1% Tween 80, pH 7.35), and blocked with 100 μl 2% yeast extract in HNaT for at least 1 hour. Plates were then washed three times with HNaT. JBS0684 was applied at a concentration corresponding to the EC90 value determined in the binding ELISA. A competitor stock solution of peptide (10 mM) was diluted 1/33.3 in HNaT without HSA, and a serial ⅓ dilution was prepared with HNaT with 3% DMSO. The dilution was further diluted with the biotinylated tracer peptide in a ratio of 1:6 (20 μl competitor dilution and 100 μl tracer peptide). The mixture of competitor and tracer peptide was applied to the Protein S-coated microtiter plate and incubated for 1.5 hours. The plates were washed three times with HNaT. Peptide-Protein S binding was detected by applying HRP-conjugated streptavidin to the microtiter plate, incubating the mixture for one hour, washing the plate three times with HNaT, applying TMB (3,3′5,5′-Tetramethylbenzidin), and detecting the subsequent chromogenic conversion of TMB by HRP. IC50 measurements of peptides are provided herein (see, e.g., Table 3).

[2] = biological target: T2, human full-length Protein S (Homo sapiens, UniProt P07225); assay: Biacore (surface plasmon resonance) on immobilized Protein S; conditions: for koff: read-out: koff; for kon: read-out: kon
T2 construct: using human full-length Protein S and human GAS6
T2 sequence (P07225 41-676 limits assumed): T1 sequence (P07225 41-676 limits assumed)
Method: Protein S affinity also was determined via Biacore (Biacore 3000 or Biacore T200) using human full-length Protein S and human GAS6. Briefly, 1000 RU of Protein S or GAS6 were immobilized on a CMS chip. In order to probe the kinetics of Protein S binding peptides to Protein S, the peptides were injected at various concentrations in a HBS-buffer containing 3 mM CaCl2 and 1% DMSO to the flow cell and allowed to interact with the immobilized proteins on the sensor chip. The chip could be regenerated with 4 M MgCl2 in HBS-buffer. Sensorgrams were fitted to a Langmuir binding model for the determination of kon and koff and the calculation of KD. Peptides were tested on their specificity to Protein S with peptide binding studies on the anti-target GAS6.

[3] = biological target: T3, C4BP/PS complex (Homo sapiens, UniProt P07225); assay: LANCE IC50 assay on preformed C4BP/PS complex
T3 sequence (P07225 41-676 limits assumed): T1 sequence (P07225 41-676 limits assumed)
Method: To investigate the effect of the peptides described herein on PS/C4BP complexes, a LANCE IC50 assay was established using methods similar to those described above. JBS2572 or JBS3216 was added to a preformed C4BP/PS complex. Changes in the complex concentration were followed by recording the TR-FRET signal. For both peptides, a time- and concentration-dependent dissociation of the C4BP/PS complex was observed. The IC50 of JBS3216 was 0.3 nM, and the IC50 of JBS2572 was 2 nM. The time-dependency of the complex reduction was similar for both peptides. After two hours of incubation in the presence of 100 nM JBS2572 or JBS3216, the C4BP/PS complex was reduced to 60% and 50%, respectively. In addition, binding of biotinylated JBS2572 to Protein S was inhibited by C4BP in the LANCE IC50 assay. Pull-down experiments where JBS2697 was coupled to streptavidin sepharose and incubated for one hour at room temperature with (a) Protein S (1.6 pmol) (b) C4BP (8.5 pmol) and (c) Protein S (1.6 pmol)+C4BP (8.5 pmol) supported the results from the modified LANCE IC50 assay.

increase of affinity compared to JBS2512 ([1]; His to Leu substitution at position 3): 1.6 fold
IC50 ([1]; competition ELISA, tracer JBS0684, re-synthesized peptides): 2.5 ± 0.3 nM
Kd ([2]; 25° C., read-out: KD for binding to Protein S): 6 nM
koff ([2]; 25° C.): 0.00148 s⁻¹
kon ([2]; 25° C.): 248000 M⁻¹ s⁻¹
Kd ([2]; 37° C., read-out: KD): 4 nM
koff ([2]; 37° C.): 0.00431 s⁻¹
kon ([2]; 37° C.): 1.14e+06 M⁻¹ s⁻¹
Kd ([2]; Biacore, affinity-matured and modified peptides, read-out: KD): 4 nM
IC50 ([3]; peptide added to preformed C4BP/PS complex, TR-FRET, read-out: IC50 of dissociation of preformed C4BP/PS complex): 2 nM
C4BP/PS complex reduced to ([3]; two hours of incubation, 100 nM peptide): 60%
SMILES: CC(=O)N[C@H](C(=O)NCC(=O)N[C@@H](CC(C)C)C(=O)N[C@H](C(=O)N[C@@H](CO)C(=O)N[C@@H](C)C(=O)NCC(=O)N[C@@H](Cc1c[nH]c2ccccc12)C(=O)N[C@@H](Cc1ccc(O)cc1)C(=O)N[C@@H](CC(=O)O)C(=O)N[C@@H](Cc1ccc(O)cc1)C(=O)N[C@@H](CC(N)=O)C(=O)N[C@@H](Cc1ccccc1)C(=O)N[C@@H](CC(=O)O)C(=O)N[C@@H](Cc1c[nH]cn1)C(=O)N[C@@H](Cc1ccc(O)cc1)C(=O)N[C@@H](CCCNC(=N)N)C(=O)N[C@@H](CCC(=O)O)C(=O)N[C@@H](Cc1ccccc1)C(=O)N[C@H](C(N)=O)[C@@H](C)O)C(C)C)[C@@H](C)O [JBS2572] (Ac-TGLVSAGWYDYNFDHYREFT-NH2)
